Test system: MV-4-11 cells
Assay: Gene expression microarray analysis (Affymetrix PrimeView) and GSEA
Assay type: cell-based, human
Parameters: RFU PODN (11730768_x_at) / Fold change /veh PODN (11730768_x_at) / RFU LINC00158 (11744669_a_at) / Fold change /veh LINC00158 (11744669_a_at) / RFU DUSP10 (11751237_a_at) / Fold change /veh DUSP10 (11751237_a_at) / RFU ID3 (11757404_x_at) / Fold change /veh ID3 (11757404_x_at) / RFU PLEKHG5 (11737974_s_at) / Fold change /veh PLEKHG5 (11737974_s_at) / RFU LRRC4B (11730491_at) / Fold change /veh LRRC4B (11730491_at) / RFU GIMAP4 (11747438_a_at) / Fold change /veh GIMAP4 (11747438_a_at) / RFU KRT8 (11758183_x_at) / Fold change /veh KRT8 (11758183_x_at) / RFU CNN1 (11734310_a_at) / Fold change /veh CNN1 (11734310_a_at) / RFU VPS37D (11726825_at) / Fold change /veh VPS37D (11726825_at) / RFU C10orf10 (11716522_x_at) / Fold change /veh C10orf10 (11716522_x_at) / RFU KIR2DL2 /// KIR2DL4 /// KIR2DL5A /// KIR2DL5B /// KIR2DS1 /// KIR2DS2 /// KIR2DS3 /// KIR2DS4 /// KIR3DL3 /// KIR3DL3 /// KIR3DS1 (11738374_at) / Fold change /veh KIR2DL2 /// KIR2DL4 /// KIR2DL5A /// KIR2DL5B /// KIR2DS1 /// KIR2DS2 /// KIR2DS3 /// KIR2DS4 /// KIR3DL3 /// KIR3DL3 /// KIR3DS1 (11738374_at) / RFU C1QL1 (11718748_at) / Fold change /veh C1QL1 (11718748_at) / RFU TMPRSS4 (11747572_a_at) / Fold change /veh TMPRSS4 (11747572_a_at) / RFU HAMP (11756126_x_at) / Fold change /veh HAMP (11756126_x_at) / RFU RNFT2 (11725882_a_at) / Fold change /veh RNFT2 (11725882_a_at) / RFU NR4A2 (11747474_a_at) / Fold change /veh NR4A2 (11747474_a_at) / RFU ABCC12 (11746883_a_at) / Fold change /veh ABCC12 (11746883_a_at) / RFU TMEM136 (11760407_x_at) / Fold change /veh TMEM136 (11760407_x_at) / RFU CLDN22 /// WWC2 (11732394_at) / Fold change /veh CLDN22 /// WWC2 (11732394_at) / RFU HLA-DPB1 (11760878_x_at) / Fold change /veh HLA-DPB1 (11760878_x_at) / RFU SPINT1 (11716480_a_at) / Fold change /veh SPINT1 (11716480_a_at) / RFU GAP43 (11754022_s_at) / Fold change /veh GAP43 (11754022_s_at) / RFU A4GNT (11735810_at) / Fold change /veh A4GNT (11735810_at) / RFU PRB3 (11715151_x_at) / Fold change /veh PRB3 (11715151_x_at) / RFU TUBB4B (11761932_at) / Fold change /veh TUBB4B (11761932_at) / RFU CAPN14 (11732068_a_at) / Fold change /veh CAPN14 (11732068_a_at) / RFU TMCC2 (11721928_a_at) / Fold change /veh TMCC2 (11721928_a_at) / RFU IRGQ (11745062_a_at) / Fold change /veh IRGQ (11745062_a_at) / RFU FAM174B (11720279_a_at) / Fold change /veh FAM174B (11720279_a_at) / RFU TMPRSS4 (11748680_a_at) / Fold change /veh TMPRSS4 (11748680_a_at) / RFU FAM212B (11763350_a_at) / Fold change /veh FAM212B (11763350_a_at) / RFU PLEKHG5 (11743358_a_at) / Fold change /veh PLEKHG5 (11743358_a_at) / RFU ZSCAN30 (11745921_a_at) / Fold change /veh ZSCAN30 (11745921_a_at) / RFU CMKLR1 (11741424_a_at) / Fold change /veh CMKLR1 (11741424_a_at) / RFU LOC101060620 /// MAPK8IP1 (11723275_at) / Fold change /veh LOC101060620 /// MAPK8IP1 (11723275_at) / RFU SPTSSB (11747773_x_at) / Fold change /veh SPTSSB (11747773_x_at) / RFU PRSS12 (11739890_at) / Fold change /veh PRSS12 (11739890_at) / RFU BIN1 (11741810_x_at) / Fold change /veh BIN1 (11741810_x_at) / RFU WNT11 (11732464_a_at) / Fold change /veh WNT11 (11732464_a_at) / RFU C10orf10 (11716521_a_at) / Fold change /veh C10orf10 (11716521_a_at) / RFU C5orf56 (11738089_at) / Fold change /veh C5orf56 (11738089_at) / RFU CYB561 (11721691_x_at) / Fold change /veh CYB561 (11721691_x_at) / RFU ANKRD19P (11752326_a_at) / Fold change /veh ANKRD19P (11752326_a_at) / RFU OR2T12 /// OR2T33 /// OR2T8 (11738714_s_at) / Fold change /veh OR2T12 /// OR2T33 /// OR2T8 (11738714_s_at) / RFU VCAN (11748164_a_at) / Fold change /veh VCAN (11748164_a_at) / RFU JSRP1 (11732532_at) / Fold change /veh JSRP1 (11732532_at) / RFU KRTAP10-11 (11738290_x_at) / Fold change /veh KRTAP10-11 (11738290_x_at) / RFU MYO3A (11730013_a_at) / Fold change /veh MYO3A (11730013_a_at) / RFU EBF3 (11725865_a_at) / Fold change /veh EBF3 (11725865_a_at) / RFU CAMK2N1 (11719241_x_at) / Fold change /veh CAMK2N1 (11719241_x_at) / RFU C5orf56 (11738088_a_at) / Fold change /veh C5orf56 (11738088_a_at) / RFU OLFML3 (11715873_a_at) / Fold change /veh OLFML3 (11715873_a_at) / RFU LOC100653217 /// NTM (11731650_a_at) / Fold change /veh LOC100653217 /// NTM (11731650_a_at) / RFU MAPK11 (11762145_a_at) / Fold change /veh MAPK11 (11762145_a_at) / RFU FIZ1 (11724087_x_at) / Fold change /veh FIZ1 (11724087_x_at) / RFU OASL (11726364_x_at) / Fold change /veh OASL (11726364_x_at) / RFU SOX15 (11748057_x_at) / Fold change /veh SOX15 (11748057_x_at) / RFU CD79A (11719716_a_at) / Fold change /veh CD79A (11719716_a_at) / RFU HIST1H1D (11736915_at) / Fold change /veh HIST1H1D (11736915_at) / RFU CASKIN2 (11723855_a_at) / Fold change /veh CASKIN2 (11723855_a_at) / RFU LOC730098 (11760151_x_at) / Fold change /veh LOC730098 (11760151_x_at) / RFU OR4N2 (11742367_at) / Fold change /veh OR4N2 (11742367_at) / RFU PRRT2 (11749266_a_at) / Fold change /veh PRRT2 (11749266_a_at) / RFU SNX32 (11753110_a_at) / Fold change /veh SNX32 (11753110_a_at) / RFU CDHR5 (11726645_a_at) / Fold change /veh CDHR5 (11726645_a_at) / RFU RCAN1 (11760418_a_at) / Fold change /veh RCAN1 (11760418_a_at) / RFU FAM167A (11723789_a_at) / Fold change /veh FAM167A (11723789_a_at) / RFU FAM26E (11764081_at) / Fold change /veh FAM26E (11764081_at) / RFU ISYNA1 (11749810_s_at) / Fold change /veh ISYNA1 (11749810_s_at) / RFU ACY1 (11761880_at) / Fold change /veh ACY1 (11761880_at) / RFU 11764098_at / Fold change /veh 11764098_at / RFU SAMD14 (11745864_x_at) / Fold change /veh SAMD14 (11745864_x_at) / RFU NPB (11741838_a_at) / Fold change /veh NPB (11741838_a_at) / RFU TMPRSS6 (11731388_a_at) / Fold change /veh TMPRSS6 (11731388_a_at) / RFU KRTAP10-2 (11738614_at) / Fold change /veh KRTAP10-2 (11738614_at) / RFU ARHGAP8 /// PRR5-ARHGAP8 (11727945_x_at) / Fold change /veh ARHGAP8 /// PRR5-ARHGAP8 (11727945_x_at) / RFU KRTAP5-7 /// NADSYN1 (11734609_at) / Fold change /veh KRTAP5-7 /// NADSYN1 (11734609_at) / RFU RASL12 (11751679_a_at) / Fold change /veh RASL12 (11751679_a_at) / RFU CDKN2B (11736163_a_at) / Fold change /veh CDKN2B (11736163_a_at) / RFU PRF1 (11729649_at) / Fold change /veh PRF1 (11729649_at) / RFU, ZNF638 /// ZNF638-IT1 / Fold change vs veh, ZNF638 /// ZNF638-IT1 / RFU, PANK3 / Fold change vs veh, PANK3 / RFU, SH3YL1 / Fold change vs veh, SH3YL1 / RFU, ZEB2 / Fold change vs veh, ZEB2 / RFU, NRIP1 / Fold change vs veh, NRIP1 / RFU, PTTG1IP / Fold change vs veh, PTTG1IP / RFU, CAPN2 / Fold change vs veh, CAPN2 / RFU, MED14 / Fold change vs veh, MED14 / RFU, SNORA58 / Fold change vs veh, SNORA58 / RFU, C1orf63 / Fold change vs veh, C1orf63 / RFU, LRRFIP1 / Fold change vs veh, LRRFIP1 / RFU, NDUFAF7 / Fold change vs veh, NDUFAF7 / RFU, SLC12A2 / Fold change vs veh, SLC12A2 / RFU, IBTK / Fold change vs veh, IBTK / RFU, ESF1 / Fold change vs veh, ESF1 / Fold change vs veh, TMEM50B / RFU, TAOK1 / Fold change vs veh, TAOK1 / RFU, ACBD3 / Fold change vs veh, ACBD3 / RFU, TMA16 / Fold change vs veh, TMA16 / RFU, RWDD3 / Fold change vs veh, RWDD3 / RFU, BCAT1 / Fold change vs veh, BCAT1 / RFU, EDEM3 / Fold change vs veh, EDEM3 / RFU, TMEM33 / Fold change vs veh, TMEM33 / RFU, WDR75 / Fold change vs veh, WDR75 / RFU, AHCTF1 / Fold change vs veh, AHCTF1 / RFU, TFRC / Fold change vs veh, TFRC / RFU, ZDHHC17 / Fold change vs veh, ZDHHC17 / RFU, NOM1 / Fold change vs veh, NOM1 / RFU, ARL8B / Fold change vs veh, ARL8B / RFU, ZBTB11 / Fold change vs veh, ZBTB11 / RFU, TAMM41 / Fold change vs veh, TAMM41 / RFU, KIAA1704 /// LOC100996395 / Fold change vs veh, KIAA1704 /// LOC100996395 / RFU, ING1 / Fold change vs veh, ING1 / RFU, TRMT61B / Fold change vs veh, TRMT61B / RFU, FUBP3 / Fold change vs veh, FUBP3 / RFU, TP53 / Fold change vs veh, TP53 / RFU, TNKS2 / Fold change vs veh, TNKS2 / RFU, ZFP14 / Fold change vs veh, ZFP14 / RFU, ACTR2 / Fold change vs veh, ACTR2 / RFU, PPP3R1 / Fold change vs veh, PPP3R1 / RFU, PIK3R1 / Fold change vs veh, PIK3R1 / RFU, HNRNPA1 / Fold change vs veh, HNRNPA1 / RFU, RNF170 / Fold change vs veh, RNF170 / RFU, ZNF28 / Fold change vs veh, ZNF28 / RFU, RNGTT / Fold change vs veh, RNGTT / RFU, OGT / Fold change vs veh, OGT / RFU, BRD1 / Fold change vs veh, BRD1 / RFU, MARS / Fold change vs veh, MARS / RFU, ZNF655 / Fold change vs veh, ZNF655 / RFU, FAHD1 / Fold change vs veh, FAHD1 / RFU, BDP1 / Fold change vs veh, BDP1 / RFU, LRRCC1 / Fold change vs veh, LRRCC1 / RFU, ARID1A / Fold change vs veh, ARID1A / RFU, ZNF146 / Fold change vs veh, ZNF146 / RFU, ZNF330 / Fold change vs veh, ZNF330 / RFU, GPN3 / Fold change vs veh, GPN3 / RFU, C9orf123 / Fold change vs veh, C9orf123 / RFU, N4BP2L2 / Fold change vs veh, N4BP2L2 / RFU, ARFIP1 / Fold change vs veh, ARFIP1 / RFU, FAM179B / Fold change vs veh, FAM179B / RFU, BCL10 / Fold change vs veh, BCL10 / RFU, UHRF1BP1L / Fold change vs veh, UHRF1BP1L / RFU, BET1 / Fold change vs veh, BET1 / RFU, CNOT2 / Fold change vs veh, CNOT2 / RFU, ZNF268 / Fold change vs veh, ZNF268 / Fold change vs veh, ZNF507 / RFU, DGCR2 / Fold change vs veh, DGCR2 / RFU, WDSUB1 / Fold change vs veh, WDSUB1 / Fold change vs veh, HSP90B1 /// MIR3652 / RFU, ADSS / Fold change vs veh, ADSS / RFU, GK / Fold change vs veh, GK / RFU, ZNF148 / Fold change vs veh, ZNF148 / RFU, TAF9 / Fold change vs veh, TAF9 / RFU, SLC1A5 / Fold change vs veh, SLC1A5 / RFU, SLMO2 / Fold change vs veh, SLMO2 / RFU, ABCC4 / Fold change vs veh, ABCC4 / RFU, LOC101060439 /// RAP1B / Fold change vs veh, LOC101060439 /// RAP1B / RFU, RFX7 / Fold change vs veh, RFX7 / RFU, GTPBP10 / Fold change vs veh, GTPBP10 / RFU, CNEP1R1 / Fold change vs veh, CNEP1R1 / RFU, BIVM-ERCC5 /// ERCC5 / Fold change vs veh, BIVM-ERCC5 /// ERCC5 / RFU, ILF3 / Fold change vs veh, ILF3 / RFU 11762660_at / Fold change /veh 11762660_at / RFU VCAN (11757783_s_at) / Fold change /veh VCAN (11757783_s_at) / RFU DDX43 (11728927_at) / Fold change /veh DDX43 (11728927_at) / RFU KRT8 (11758188_x_at) / Fold change /veh KRT8 (11758188_x_at) / RFU NKD1 (11759106_at) / Fold change /veh NKD1 (11759106_at) / RFU SRD5A1 (11742802_a_at) / Fold change /veh SRD5A1 (11742802_a_at) / RFU TPSAB1 /// TPSB2 (11721975_s_at) / Fold change /veh TPSAB1 /// TPSB2 (11721975_s_at) / RFU GSTM3 (11746129_a_at) / Fold change /veh GSTM3 (11746129_a_at) / RFU IL23R (11737362_x_at) / Fold change /veh IL23R (11737362_x_at) / RFU TMEM51 (11727254_a_at) / Fold change /veh TMEM51 (11727254_a_at) / RFU PIWIL2 (11732686_x_at) / Fold change /veh PIWIL2 (11732686_x_at) / RFU ORM1 (11744905_x_at) / Fold change /veh ORM1 (11744905_x_at) / RFU CCDC152 (11743942_at) / Fold change /veh CCDC152 (11743942_at) / RFU ECM1 (11717891_a_at) / Fold change /veh ECM1 (11717891_a_at) / RFU IL23R (11748794_a_at) / Fold change /veh IL23R (11748794_a_at) / RFU TNFAIP8L3 (11732012_x_at) / Fold change /veh TNFAIP8L3 (11732012_x_at) / RFU MBOAT4 (11741988_at) / Fold change /veh MBOAT4 (11741988_at) / RFU 11764193_at / Fold change /veh 11764193_at / RFU TMEM53 (11763286_at) / Fold change /veh TMEM53 (11763286_at) / RFU MAGEB2 (11727129_at) / Fold change /veh MAGEB2 (11727129_at) / RFU TMEM200A (11744735_a_at) / Fold change /veh TMEM200A (11744735_a_at) / RFU CCDC152 (11751479_a_at) / Fold change /veh CCDC152 (11751479_a_at) / RFU FAM211A (11726209_a_at) / Fold change /veh FAM211A (11726209_a_at) / RFU RGS16 (11746705_a_at) / Fold change /veh RGS16 (11746705_a_at) / RFU VCAN (11755009_s_at) / Fold change /veh VCAN (11755009_s_at) / RFU RHOB (11743442_s_at) / Fold change /veh RHOB (11743442_s_at) / RFU RGS16 (11720943_a_at) / Fold change /veh RGS16 (11720943_a_at) / RFU RGS16 (11720944_at) / Fold change /veh RGS16 (11720944_at) / RFU, VPS4B / Fold change vs veh, VPS4B / RFU, CREB1 / Fold change vs veh, CREB1 / RFU, DNAJC13 / Fold change vs veh, DNAJC13 / RFU, GNAQ / Fold change vs veh, GNAQ / RFU, CDK5R1 / Fold change vs veh, CDK5R1 / RFU, ZRANB3 / Fold change vs veh, ZRANB3 / RFU, CUL4A / Fold change vs veh, CUL4A / RFU, CCNY / Fold change vs veh, CCNY / RFU, UFL1 / Fold change vs veh, UFL1 / RFU, COG3 / Fold change vs veh, COG3 / RFU, DIAPH2 / Fold change vs veh, DIAPH2 / RFU, SKA2 / Fold change vs veh, SKA2 / RFU, AFF3 / Fold change vs veh, AFF3 / RFU, LMF1 / Fold change vs veh, LMF1 / RFU, IPO11 / Fold change vs veh, IPO11 / RFU, DFFB / Fold change vs veh, DFFB / RFU, FOXP1 / Fold change vs veh, FOXP1 / RFU, CARD8 / Fold change vs veh, CARD8 / RFU, STRN3 / Fold change vs veh, STRN3 / RFU, ADK / Fold change vs veh, ADK / RFU, RASSF2 / Fold change vs veh, RASSF2 / RFU, WIPF1 / Fold change vs veh, WIPF1 / RFU, LARP1B / Fold change vs veh, LARP1B / RFU, RASA1 / Fold change vs veh, RASA1 / RFU, RB1 / Fold change vs veh, RB1 / RFU, PPFIA1 / Fold change vs veh, PPFIA1 / RFU, MAT2A / Fold change vs veh, MAT2A / RFU, CCT5 / Fold change vs veh, CCT5 / RFU, WDR92 / Fold change vs veh, WDR92 / RFU, CUX1 / Fold change vs veh, CUX1 / RFU, TTC7A / Fold change vs veh, TTC7A / RFU, TMEM135 / Fold change vs veh, TMEM135 / RFU, DEPTOR / Fold change vs veh, DEPTOR / RFU, CPM / Fold change vs veh, CPM / RFU, DNAJB6 / Fold change vs veh, DNAJB6 / RFU, CACNA2D3 / Fold change vs veh, CACNA2D3 / RFU, DTX4 / Fold change vs veh, DTX4 / RFU, TFCP2 / Fold change vs veh, TFCP2 / RFU, GMCL1 /// GMCL1P1 / Fold change vs veh, GMCL1 /// GMCL1P1 / RFU, AEBP2 / Fold change vs veh, AEBP2 / RFU, SNHG1 /// SNORD22 /// SNORD25 /// SNORD26 /// SNORD27 /// SNORD28 /// SNORD29 /// SNORD31 / Fold change vs veh, SNHG1 /// SNORD22 /// SNORD25 /// SNORD26 /// SNORD27 /// SNORD28 /// SNORD29 /// SNORD31 / Fold change (Aza/veh), C12orf56 (ProbeSet 11735607_a_at) / Fold change (ACY-1035/veh), C12orf56 (ProbeSet 11735607_a_at) / Fold change (Aza/veh), FGFR1OP (ProbeSet 11751329_s_at) / Fold change (ACY-1035/veh), FGFR1OP (ProbeSet 11751329_s_at) / Fold change (Aza/veh), VPS36 (ProbeSet 11739960_a_at) / Fold change (ACY-1035/veh), VPS36 (ProbeSet 11739960_a_at) / RFU SYPL1 (11715823_x_at) / Fold change /veh SYPL1 (11715823_x_at) / RFU IGFBP7 (11715501_s_at) / Fold change /veh IGFBP7 (11715501_s_at) / RFU REEP3 (11722064_at) / Fold change /veh REEP3 (11722064_at) / RFU IGLL1 (11728026_x_at) / Fold change /veh IGLL1 (11728026_x_at): dose or concentration left out as unconfirmed
Details: ProbeSet 11758170_s_at; LIST D

Nc1ccc(-c2cccs2)cc1NC(=O)c1ccc2c(c1)cc(C1CC1)n2CCN1CCOCC1 [ACY-1035]
RFU, DIAPH2: 32.47 RFU
